Reference: ChEMBL document CHEMBL1201862, “PubChem BioAssay data set” (2004)
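Results reflect a 48-hour exposure of cells in 96-well plates to compound at five concentrations. GI50 = concentration required for 50% inhibition of growth.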 The source made the active and inactive calls. No stated cut-off is given here; in the data, active = GI50 up to about 1.1 µM and inactive = higher.

What was measured:
Test in all cases: DTP human tumour cell line panel, 48 h
786-0 = test system: 786-0
A498 = test system: A498
ACHN = test system: ACHN
BT-549 = test system: BT-549
CAKI-1 = test system: CAKI-1
CCRF-CEM = test system: CCRF-CEM
COLO 205 = test system: COLO 205
DU-145 = test system: DU-145
EKVX = test system: EKVX
HCT-116 = test system: HCT-116
HCT-15 = test system: HCT-15
HL-60 = test system: HL-60
HT-29 = test system: HT-29
Hs-578T = test system: Hs-578T
IGROV-1 = test system: IGROV-1
K562 = test system: K562
KM12 = test system: KM12
LOX IMVI = test system: LOX IMVI
M14 = test system: M14
MCF7 = test system: MCF7
MDA-MB-231 = test system: MDA-MB-231
MDA-MB-435 = test system: MDA-MB-435
MDA-N = test system: MDA-N
MOLT-4 = test system: MOLT-4
Malme-3M = test system: Malme-3M
NCI-H226 = test system: NCI-H226
NCI-H23 = test system: NCI-H23
NCI/ADR-RES = test system: NCI/ADR-RES
OVCAR-3 = test system: OVCAR-3
OVCAR-5 = test system: OVCAR-5
OVCAR-8 = test system: OVCAR-8
PC-3 = test system: PC-3
RPMI-8226 = test system: RPMI-8226
RXF 393 = test system: RXF 393
SF-268 = test system: SF-268
SF-295 = test system: SF-295
SF-539 = test system: SF-539
SK-MEL-28 = test system: SK-MEL-28
SK-MEL-2 = test system: SK-MEL-2
SK-MEL-5 = test system: SK-MEL-5
SK-OV-3 = test system: SK-OV-3
SN12C = test system: SN12C
SNB-19 = test system: SNB-19
SW-620 = test system: SW-620
TK-10 = test system: TK-10
U-251 = test system: U-251
UACC-257 = test system: UACC-257
UACC-62 = test system: UACC-62
UO-31 = test system: UO-31
A549 = test system: A549
HOP-62 = test system: HOP-62
NCI-H522 = test system: NCI-H522
OVCAR-4 = test system: OVCAR-4
HCC 2998 = test system: HCC 2998
NCI-H460 = test system: NCI-H460

For `O=C(c1ccc(Cl)cc1Cl)N(C(=O)N1CCCCC1)c1ccccc1`, the GI50 (786-0) was > 100 µM (inactive), the GI50 (A498) was > 100 µM (inactive) and the GI50 (ACHN) was > 100 µM (inactive). For the same molecule, the GI50 (BT-549) was > 100 µM (inactive), the GI50 (CAKI-1) was > 100 µM (inactive) and the GI50 (CCRF-CEM) was > 100 µM (inactive). For the same molecule, the GI50 (COLO 205) was > 100 µM (inactive), the GI50 (DU-145) was > 100 µM (inactive) and the GI50 (EKVX) was 5.45 µM (inactive). For the same molecule, the GI50 (HCT-116) was > 100 µM (inactive), the GI50 (HCT-15) was greater than 100 µM and the GI50 (HL-60) was > 100 µM (inactive). For the same molecule, the GI50 (HT-29) was > 100 µM (inactive), the GI50 (Hs-578T) was > 100 µM (inactive) and the GI50 (IGROV-1) was > 100 µM (inactive). For the same molecule, the GI50 (K562) was > 100 µM (inactive), the GI50 (KM12) was > 100 µM (inactive) and the GI50 (LOX IMVI) was > 100 µM (inactive). The GI50 (M14) was > 100 µM (inactive), the GI50 (MCF7) was > 100 µM (inactive) and the GI50 (MDA-MB-231) was > 100 µM (inactive). The GI50 (MDA-MB-435) was > 100 µM (inactive), the GI50 (MDA-N) was > 100 µM (inactive) and the GI50 (MOLT-4) was > 100 µM (inactive). For the same molecule, the GI50 (Malme-3M) was 5.94 µM (inactive), the GI50 (NCI-H226) was > 100 µM (inactive) and the GI50 (NCI-H23) was > 100 µM (inactive). For the same molecule, the GI50 (NCI/ADR-RES) was > 100 µM (inactive), the GI50 (OVCAR-3) was 42.5 µM (inactive) and the GI50 (OVCAR-5) was 69.3 µM (inactive). The GI50 (OVCAR-8) was > 100 µM (inactive), the GI50 (PC-3) was > 100 µM (inactive) and the GI50 (RPMI-8226) was > 100 µM (inactive). For the same molecule, the GI50 (RXF 393) was > 100 µM (inactive), the GI50 (SF-268) was > 100 µM (inactive) and the GI50 (SF-295) was > 100 µM (inactive). The GI50 (SF-539) was > 100 µM (inactive), the GI50 (SK-MEL-28) was > 100 µM (inactive) and the GI50 (SK-MEL-2) was > 100 µM (inactive). The GI50 (SK-MEL-5) was > 100 µM (inactive), the GI50 (SK-OV-3) was > 100 µM (inactive) and the GI50 (SN12C) was > 100 µM (inactive). The GI50 (SNB-19) was > 100 µM (inactive), the GI50 (SW-620) was > 100 µM (inactive) and the GI50 (TK-10) was > 100 µM (inactive). The GI50 (U-251) was > 100 µM (inactive), the GI50 (UACC-257) was > 100 µM (inactive) and the GI50 (UACC-62) was > 100 µM (inactive). The GI50 (UO-31) was > 100 µM (inactive).

`COc1cc2c[n+](C)c3c4cc(OC)c(OC)cc4ccc3c2cc1OC` was tested, and the GI50 (786-0) was > 58.5 µM (inactive), the GI50 (A498) was > 100 µM (inactive) and the GI50 (A549) was 58.7 µM (inactive). The GI50 (BT-549) was 20.4 µM (inactive), the GI50 (CCRF-CEM) was 18.8 µM (inactive) and the GI50 (COLO 205) was 11.8 µM (inactive). The GI50 (DU-145) was 25 µM (inactive), the GI50 (EKVX) was > 63 µM (inactive) and the GI50 (HCT-116) was 68.5 µM (inactive). For the same molecule, the GI50 (HOP-62) was 97.7 µM (inactive), the GI50 (IGROV-1) was 23 µM (inactive) and the GI50 (K562) was 16.6 µM (inactive). For the same molecule, the GI50 (LOX IMVI) was 54 µM (inactive), the GI50 (MDA-MB-435) was > 85.7 µM (inactive) and the GI50 (NCI-H522) was 7.11 µM (inactive). The GI50 (OVCAR-3) was 29.3 µM (inactive), the GI50 (OVCAR-4) was > 38.5 µM (inactive) and the GI50 (OVCAR-5) was > 100 µM (inactive). For the same molecule, the GI50 (PC-3) was 74.1 µM (inactive), the GI50 (RPMI-8226) was 57.1 µM (inactive) and the GI50 (SF-295) was 69 µM (inactive). The GI50 (SK-MEL-5) was 32 µM (inactive), the GI50 (SK-OV-3) was 88.9 µM (inactive) and the GI50 (SW-620) was > 66.1 µM (inactive). The GI50 (TK-10) was > 100 µM (inactive), the GI50 (UACC-257) was 74.1 µM (inactive) and the GI50 (UACC-62) was > 82.8 µM (inactive).

`Cc1cc(C)nc(NCCC(O)(P(=O)(O)O)P(=O)(O)O)n1` was tested, and the GI50 (786-0) was > 100 µM (inactive), the GI50 (A549) was > 100 µM (inactive) and the GI50 (ACHN) was > 100 µM (inactive). For the same molecule, the GI50 (BT-549) was > 100 µM (inactive), the GI50 (CAKI-1) was > 100 µM (inactive) and the GI50 (COLO 205) was > 100 µM (inactive). The GI50 (DU-145) was > 100 µM (inactive), the GI50 (EKVX) was > 100 µM (inactive) and the GI50 (HCC 2998) was > 100 µM (inactive). The GI50 (HCT-116) was > 100 µM (inactive), the GI50 (HCT-15) was greater than 100 µM and the GI50 (HOP-62) was > 100 µM (inactive). For the same molecule, the GI50 (IGROV-1) was > 100 µM (inactive), the GI50 (KM12) was > 100 µM (inactive) and the GI50 (LOX IMVI) was > 100 µM (inactive). For the same molecule, the GI50 (M14) was > 100 µM (inactive), the GI50 (MCF7) was 92.5 µM (inactive) and the GI50 (MDA-MB-231) was > 100 µM (inactive). For the same molecule, the GI50 (MDA-N) was > 100 µM (inactive), the GI50 (Malme-3M) was > 100 µM (inactive) and the GI50 (NCI-H226) was > 100 µM (inactive). The GI50 (NCI-H23) was > 100 µM (inactive), the GI50 (NCI-H460) was > 100 µM (inactive) and the GI50 (NCI-H522) was > 100 µM (inactive). The GI50 (NCI/ADR-RES) was > 100 µM (inactive), the GI50 (OVCAR-3) was 39.2 µM (inactive) and the GI50 (OVCAR-5) was > 100 µM (inactive). For the same molecule, the GI50 (PC-3) was > 100 µM (inactive), the GI50 (RXF 393) was > 100 µM (inactive) and the GI50 (SF-268) was > 100 µM (inactive). For the same molecule, the GI50 (SF-295) was > 100 µM (inactive), the GI50 (SF-539) was > 100 µM (inactive) and the GI50 (SK-MEL-5) was > 100 µM (inactive). For the same molecule, the GI50 (SK-OV-3) was > 100 µM (inactive), the GI50 (SNB-19) was > 100 µM (inactive) and the GI50 (TK-10) was > 100 µM (inactive). For the same molecule, the GI50 (UACC-257) was > 100 µM (inactive), the GI50 (UACC-62) was > 100 µM (inactive) and the GI50 (UO-31) was > 100 µM (inactive).
